Test results as given in patent publication US20050132448A1, “Assay for beta cell toxic macrolides” (priority 2001, published 2005).

Legend:
Balb/c mice [1] = experiment: Plasma immunoreactive insulin (radioimmunoassay); assay type: in vivo; conditions: 7 days after treatment
Protocol: (§1) Male Balb/c mice were provided by the Monash University Central Animal House and Breeding Facility. The Monash University Department of Biochemistry Animal Ethics Committee approved all animal experimentation. Bafilomycin A1 (Sigma) was dissolved in 70% ethanol then diluted 1 in 10 with sterile phosphate buffered saline (PBS) to give a working stock of 4.8 μg/ml. Groups of between 3 and 9 mice as indicated were administered 12 μg per kilogram (body weight) bafilomycin A1 by intraperitoneal injection, which should achieve a final concentration in the blood of 275 nM bafilomycin A1 assuming a blood volume of 70 ml per kg for mice. […] Control mice received the ethanol/PBS carrier solution that lacked the inhibitor.
Groups of 9 mice were treated with bafilomycin A1 or carrier solution then fasted, anaesthetised with penotobarbitone and challenged with glucose as described for the OGTT. Blood samples for insulin assay were collected from the orbital plexus from fasted mice or from mice 15 minutes after glucose challenge using 4×75 μl haematocrit tubes for each bleed. Serum samples were diluted 1 in 5 or 1 in 20 then assayed in duplicate for insulin content using a Linco sensitive rat insulin radioimmunoassay kit. […] Insulin content was determined by sensitive rat insulin RIA using a 1 in 1,000 dilution of the homogenates.

P-ATPase = conditions: 275 nM; cited from earlier work
Balb/c mice [2] = experiment: Oral glucose tolerance test (OGTT); assay type: in vivo
Protocol: as §1
Groups of 6 control and 6 treated mice were fasted for 6-7 hours then anaesthetised by intraperitoneal injection of 35 mg/kg body weight of pentobarbitone (Nembutal) in order to minimise stress-induced variations in blood glucose. D-glucose (2 mg/g body weight) was delivered into the stomach by gavage as a 200 mg/ml solution. Blood glucose concentrations were determined for the fasted mice and at 15, 30, 60 and 120 minutes after glucose challenge as follows. Whole blood (approximately 60 μl) was collected from the tail vein and glucose concentrations were immediately determined by the glucose oxidase method using a YSI glucose analyser.

F-ATPase = conditions: 275 nM; cited from earlier work
Balb/c mice [3] = experiment: Pancreatic immunoreactive insulin content by RIA on pancreas homogenates; assay type: in vivo; conditions: treated 14 days previously, 15 minutes after glucose challenge
Protocol: Groups of 9 mice were treated with bafilomycin A1 or carrier solution then fasted, anaesthetised with penotobarbitone and challenged with glucose as described for the OGTT. Blood samples for insulin assay were collected from the orbital plexus from fasted mice or from mice 15 minutes after glucose challenge using 4×75 μl haematocrit tubes for each bleed. Serum samples were diluted 1 in 5 or 1 in 20 then assayed in duplicate for insulin content using a Linco sensitive rat insulin radioimmunoassay kit. Pancreata from the mice that were bled 15 minutes after glucose challenge were dissected and frozen on dry ice. The frozen pancreata were homogenised in 2 ml of PBS containing 1 mg/ml BSA per gram of pancreas by 10 strokes in a dounce homogeniser. The slurry was sonicated using 3×10 second bursts and then centrifuged at 12,000×g for 60 minutes. The supernatants were stored at −20° C. Insulin content was determined by sensitive rat insulin RIA using a 1 in 1,000 dilution of the homogenates.
Pancreatic immunoreactive insulin content was determined directly by RIA on homogenates of pancreas. Mice treated 14 days previously were fasted and then challenged with glucose 15 minutes prior to removal of the pancreas. […]

vATPase = biological target: T1, vATPase (Mus musculus, UniProt P63082); experiment: V-ATPase activity assay on kidney homogenates of bafilomycin A1 treated mice; assay type: in vivo; conditions: for Bafilomycin A1 sensitive ATPase activity ± SD / total ATPase activity ± SD: kidney homogenate; for reduction of bafilomycin A1 sensitive ATPase activity: vs control
T1 construct: from tissue; host or cells: kidney of male Balb/c mice (crude homogenate, 700 x g supernatant)
Protocol: as §1
Seven control mice, 4 mice treated 1 day previously and 4 mice treated 7 days previously with bafilomycin A1 were anaesthetised with 35 mg per kg body weight pentobarbitone (Nembutal) and the kidneys removed and immediately frozen on dry ice and stored at −80° C. until processed. The kidneys were weighed then homogenised in liquid nitrogen using a mortar and pestle. 1 ml of 10 mM Tris-Cl pH 8.0 and 2 mM Mg2Cl containing protease inhibitors was then added and the tissue was further homogenised with 5 strokes of a dounce homogeniser. One ml of 0.5 M sucrose, 40 mM Tris-Cl pH 8, 2 mM Mg2Cl was then added to the homogenate and the suspension was clarified by centrifugation at 700×g for 10 minutes at 4° C. Supernatents containing soluble and membrane bound components were then assayed in duplicate for ATPase activity by incubating 100 μl of a 1:100 dilution of the tissue extract with 1 mM ATP in Tris buffered saline (TBS) for 30 minutes in the well of a microtitre plate in the presence or absence of 15 μl of a 1 μM solution of bafilomycin A1 in a final reaction volume of 200 μl. The inorganic phosphate released was measured using the one-step method of Chan et al., (1986), and absorbances were read in a microtitre plate reader at a wavelength of 660 nm. Results were corrected for background phosphate concentration and ATP autohydrolysis. The protein content of each kidney extract was determined using the Bradford reagent (Biorad).

T1 sequence (Q91V37 whole entry): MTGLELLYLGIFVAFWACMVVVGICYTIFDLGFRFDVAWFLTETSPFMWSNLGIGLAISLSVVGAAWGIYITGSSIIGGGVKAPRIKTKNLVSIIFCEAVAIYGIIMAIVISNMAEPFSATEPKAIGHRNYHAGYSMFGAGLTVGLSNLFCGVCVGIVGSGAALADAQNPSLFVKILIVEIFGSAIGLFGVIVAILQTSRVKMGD
T1 sequence (P63082 whole entry): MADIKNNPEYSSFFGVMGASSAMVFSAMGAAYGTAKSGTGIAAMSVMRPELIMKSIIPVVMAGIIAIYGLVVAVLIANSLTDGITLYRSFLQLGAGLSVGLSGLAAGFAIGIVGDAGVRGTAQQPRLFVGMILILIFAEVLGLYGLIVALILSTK

## CO/C1=C\C(C)=C\[C@@H](C)[C@@H](O)[C@@H](C)C/C(C)=C/C=C/[C@H](OC)[C@@H]([C@@H](C)[C@@H](O)[C@H](C)[C@@]2(O)C[C@@H](O)[C@H](C)[C@@H](C(C)C)O2)OC1=O [bafilomycin A1]
Balb/c mice [1]
  plasma insulin level fifteen minutes after glucose challenge: 15±10
Balb/c mice [1]; fasting
  fasting plasma immunoreactive insulin level: 1.2±0.8
P-ATPase
  inhibition of P-ATPase activity: no detectable inhibition
Balb/c mice [2]; 21 days after treatment
  blood glucose after 2 hours (OGTT): 4.2 ± 0.2 mM
Balb/c mice [2]; seven days after administration
  blood glucose after 2 hours (OGTT): 4.1 ± 0.4 mM
Balb/c mice [2]; treated mice
  fasting glucose levels: no change
Balb/c mice [2]; twenty one days after administration
  peak glucose level, 15 minutes after glucose challenge: 12.5 ± 2.4 mM
F-ATPase
  inhibition of F-ATPase activity: no detectable inhibition
Balb/c mice [3]
  more pancreatic immunoreactive insulin than controls: 70%
  pancreatic immunoreactive insulin content (median): 565 μg IRI per gram of pancreas
vATPase; 1 day after treatment
  kidney % of animal weight ± SD: 0.90 ± 0.11%
vATPase; 1 day and 7 days after treatment
  weight or protein contents of the kidneys, treated vs control: no significant differences
vATPase; 7 day after treatment
  kidney % of animal weight ± SD: 0.90 ± 0.15%
vATPase; 1 day after 12 μg/kg i.p.
  Bafilomycin A1 sensitive ATPase activity ± SD: 0.80 ± 0.30 Nmol/min/mg protein
  total ATPase activity ± SD: 4.4 ± 0.5 Nmol/min/mg protein
vATPase; 7 day after 12 μg/kg i.p.
  Bafilomycin A1 sensitive ATPase activity ± SD: 0.80 ± 0.30 Nmol/min/mg protein
  total ATPase activity ± SD: 4.8 ± 0.8 Nmol/min/mg protein
vATPase; kidney, 1 day after treatment
  reduction of bafilomycin A1 sensitive ATPase activity: 50%
vATPase; kidney, 1 day and 7 days after treatment
  reduction of bafilomycin A1 insensitive ATPase activity: not in bafilomycin A1 insensitive ATPase activity
vATPase; kidney, 7 days after treatment
  reduction of bafilomycin A1 sensitive ATPase activity: 50%
